Measurements from patent US10434199B2, “Picolinate cross-bridged cyclams, chelates with metallic cations and use thereof” (UNIVERSITÉ DE BRETAGNE OCCIDENTALE, priority 2013, dated 2019).
Like-named read-outs stand apart in the source and are kept apart here.

Tests used:
[1] = overview table, cited from earlier work; for a) metallation kinetics: time required for complete (>99%) Cu complexation (in words): ligands of the prior art
[2] = cited from earlier work; for half-life (t1/2), acid-assisted dissociation of copper(II) complex: literature value; for d) kinetic inertness: half-life (t1/2): copper chelates of prior-art ligands
[3] = overview table; copper chelates of prior-art ligands; cited from earlier work
[4] = Potentiometric titrations: stability constants and pM of Cu^2+ complexes; type: physicochemical; conditions: for b) thermodynamic stability: pCu: overview table, calculated pM
Experimental: Equipment and work conditions. The potentiometric setup has been described in Roger, M. et al. Inorg. […] Ligand solutions were prepared at about 2.0×10^−3 M, and the Cu^2+ and Zn^2+ solutions at ca. 0.05 M from analytical grade nitrate salts and standardized by complexometric titrations with H4edta (ethylenediaminetetraacetic acid). Sample solutions for titration contained approximately 0.04 mmol of ligand in a volume of 30 mL where the ionic strength was kept at 0.10 M using KNO3 as background electrolyte. Metal cations were added at 0.9 equiv. of the ligand amount in complexation titrations. Batch titrations were prepared in a similar way but with each titration point corresponding to 1/10 of the amount of a conventional titration sample.
(§1) Measurements. All measurements were carried out at 25.0±0.1° C. under inert atmosphere. The electromotive force of the sample solutions was measured after calibration of the electrodes by titration of a standard HNO3 solution at 2.0×10^−3 M in the work conditions. The [H^+] of the solutions was determined by measurement of the electromotive force of the cell, E=E^o′+Q log [H^+]+Ej. The term pH is defined as −log [H^+]. E^o′ and Q were determined from the acid region of the calibration curves. Deviations from the Nernst law at very low pH (pH<2.5) were corrected with the VLpH software (Calibration software from the maker of Hyperquad available for free at http://www.hyperquad.co.uk/), which performs a [H^+] correction based on a very low pH calibration procedure.
(§2) Calculations. The potentiometric data were refined with the Hyperquad software, and speciation diagrams were plotted using the HySS software. The overall equilibrium constants βi^H and βMmHhL1 are defined by βMmHhL1=[MmHhLl]/[M]^m[H]^h[L]^l (βi^H=[HhLl]/[H]^h[L]^l and βML-1L=βML(OH)×Kw). Differences in log units between the values of protonated (or hydrolysed) and non-protonated constants provide the stepwise (log K) reaction constants (being KMmHhL1=[MmHhLl]/[MmHh-1Ll][H]). The errors quoted are the standard deviations calculated by the fitting program from all the experimental data for each system.
(§3) The stability constants of the complexes formed by Hcb-te1pa with Cu^2+ and Zn^2+ were determined by potentiometric titrations in aqueous solution at 25.0° C. in 0.10 M KNO3 ionic strength (Table 2).
During titrations, each experimental point included a supplementary equilibration time in order to yield fully stabilized measurements. […] For this reason, batch titrations were prepared in the range of pH=4-6 and were left to equilibrate until full stabilization, while conventional titrations were used for the remaining pH regions.
For a correct comparison of the thermodynamic stability of the complexes of Hcb-te1pa with the corresponding values of other ligands from the literature, the pM values that take into account the variable basicity properties of different ligands were also calculated (Table 3). […] The thermodynamic stability is not the only important criterion to determine the efficiency of metal complexation because, depending on the application, other factors such as kinetic inertness or in vivo stability can be more important.

[5] = Potentiometric titrations: stability constants and pM of Zn^2+ complexes; type: physicochemical; conditions: for c) inertness vs Zn: pZn: overview table, calculated pM
Experimental: Equipment and work conditions. The potentiometric setup has been described in Roger, M. et al. Inorg. Chem. 2013, 52, 5246-5259. The titrant was a KOH solution prepared at ca. 0.1 M from a commercial ampoule of analytical grade, and its accurate concentration was obtained by application of the Gran's method upon titration of a standard HNO3 solution (Rossotti, F. J. and Rossotti, H. J. J. Chem. Educ. 1965, 42, 375-378). Ligand solutions were prepared at about 2.0×10^−3 M, and the Cu^2+ and Zn^2+ solutions at ca. 0.05 M from analytical grade nitrate salts and standardized by complexometric titrations with H4edta (ethylenediaminetetraacetic acid). Sample solutions for titration contained approximately 0.04 mmol of ligand in a volume of 30 mL where the ionic strength was kept at 0.10 M using KNO3 as background electrolyte. Metal cations were added at 0.9 equiv. of the ligand amount in complexation titrations. Batch titrations were prepared in a similar way but with each titration point corresponding to 1/10 of the amount of a conventional titration sample. Batch titration points were incubated in tightly closed vials at 25° C. until potential measurements attained complete stability, which happened within a week.
as §1, with “procedure. The liquid-junction potential, Ej, was otherwise found to be negligible for pH >2.5 under the experimental conditions used. […] Each titration consisted of 80-100 equilibrium points in the range of pH 2.5-11.5 (or 1.5-11.5 for Cu^2+ complexations), and at least two replicate titrations were performed for each particular system.” for “procedure.”
as §2, §3
The equilibrium of formation of the copper(II) and especially the zinc(II) complexes is slow in the acidic pH range. In the case of Cu^2+, the complexation is almost complete from low pH but relatively slow up to pH=4. To overcome this double problem, conventional titrations were performed at pH values below 2 in order to observe a significant percentage of free metal ion (at least 18%) and thus allow for determination of the corresponding stability constant, while giving the solution enough time to reach equilibrium prior to the start of the titration. During titrations, each experimental point included a supplementary equilibration time in order to yield fully stabilized measurements. […]

[6] = 25.0° C., 0.10M KNO3; from Lima et al. 2012; cited from earlier work
[7] = cited from earlier work; for b) thermodynamic stability: log K[CuL]: overview table, ligands of the prior art (* estimation by Anderson and Ferdani 2009)
[8] = cited from earlier work; for c) inertness vs Zn: log K[ZnL]: overview table, ligands of the prior art (** Delgado 1982, *** Chaves 1992)
[9] = pH = 7.4, 100% excess of ligand, [M^2+]tot = 1 × 10^−5 M
[10] = 25.0° C., I = 0.10M KNO3, from Lima et al. 2012

O=C(O)CN1CCN2CCN(CC1)CCN(CC(=O)O)CC2 [cb-do2a]
a) metallation kinetics: time required for complete (>99%) Cu complexation (in words) [1]: too slow
half-life (t1/2), acid-assisted dissociation of copper(II) complex ([2]; 5M HCl, 30° C.): <0.033 h
d) kinetic inertness: half-life (t1/2) ([2]; HCl, 5M, 30° C.): <2 min
d) kinetic inertness: half-life (t1/2) ([2]; HCl, 5M, 90° C.): <3 min
e) stability upon reduction, Cu(II) -> Cu (I): reduction potential [3]: −0.72 V
e) stability upon reduction, Cu(II) -> Cu (I): reversibility [3]: irreversible

O=C(O)c1cccc(CN2CCCNCCNCCCNCC2)n1 [Hte1pa]
b) thermodynamic stability: pCu [4]: 18.64
Calculated pM, Cu^2+ [4, 9]: 18.64
c) inertness vs Zn: pZn [5]: 12.00
Calculated pM, Zn^2+ [5, 9]: 12.00
log βi^H, L + 2 H^+ ⇌ H2L [6]: 21.66 log units
log βi^H, L + 3 H^+ ⇌ H3L [6]: 24.37 log units
log βi^H, L + 4 H^+ ⇌ H4L [6]: 26.07 log units
log βi^H, L + H^+ ⇌ HL [6]: 11.55 log units
log KMLHh, CuL + H^+ ⇌ CuHL [7, 10]: 2.17 log units
log KMLHh, CuLOH + H^+ ⇌ CuL [7, 10]: 11.15 log units
log KMLHh, Cu^2+ + L ⇌ CuL [7, 10]: 25.5 log units
log βMLHh, Cu^2+ + H^+ + L ⇌ CuHL [7, 10]: 27.67 log units
log βMLHh, Cu^2+ + L ⇌ CuL [7, 10]: 25.5 log units
log βMLHh, Cu^2+ + L ⇌ CuLOH + H^+ [7, 10]: 14.35 log units
b) thermodynamic stability: log K[CuL] [7]: 25.50
log KMLHh, ZnL + H^+ ⇌ ZnHL [8, 10]: 2.52 log units
log KMLHh, ZnLOH + H^+ ⇌ ZnL [8, 10]: 11.02 log units
log KMLHh, Zn^2+ + L ⇌ ZnL [8, 10]: 18.86 log units
log βMLHh, Zn^2+ + H^+ + L ⇌ ZnHL [8, 10]: 21.38 log units
log βMLHh, Zn^2+ + L ⇌ ZnL [8, 10]: 18.86 log units
log βMLHh, Zn^2+ + L ⇌ ZnLOH + H^+ [8, 10]: 7.84 log units
c) inertness vs Zn: log K[ZnL] [8]: 18.86
a) metallation kinetics: time required for complete (>99%) Cu complexation ([1]; ligand of the prior art): 3 min
half-life (t1/2), acid-assisted dissociation of copper(II) complex ([2]; 1M HCl, 25° C.): 0.533 h
half-life (t1/2), acid-assisted dissociation of copper(II) complex ([2]; 5M HClO4, 25° C.): 2.4 h
d) kinetic inertness: half-life (t1/2) ([2]; HClO4, 5M, 25° C.): 144 min
e) stability upon reduction, Cu(II) -> Cu (I): reduction potential [3]: −1.05 V
e) stability upon reduction, Cu(II) -> Cu (I): reversibility [3]: quasi-reversible

O=C(O)CN1CCCN(CC(=O)O)CCN(CC(=O)O)CCCN(CC(=O)O)CC1 [teta]
b) thermodynamic stability: pCu [4]: 15.19
c) inertness vs Zn: pZn [5]: 10.08
b) thermodynamic stability: log K[CuL] [7]: 21.60
c) inertness vs Zn: log K[ZnL] [8]: 15.81**
a) metallation kinetics: time required for complete (>99%) Cu complexation (in words) [1]: fast
d) kinetic inertness: half-life (t1/2) ([2]; HCl, 5M, 30° C.): 5040 min
d) kinetic inertness: half-life (t1/2) ([2]; HCl, 5M, 90° C.): 4.5 min
d) kinetic inertness: half-life (t1/2) ([2]; HClO4, 5M, 25° C.): about 8 min
e) stability upon reduction, Cu(II) -> Cu (I): reduction potential [3]: −0.98 V
e) stability upon reduction, Cu(II) -> Cu (I): reversibility [3]: irreversible

O=C(O)CN1CCN(CC(=O)O)CCN(CC(=O)O)CCN(CC(=O)O)CC1 [dota, 1,4,7,10-tetraazacyclododecane-1,4,7,10-tetraacetic acid]
b) thermodynamic stability: pCu [4]: 15.19
c) inertness vs Zn: pZn [5]: 15.01
b) thermodynamic stability: log K[CuL] [7]: 22.21
c) inertness vs Zn: log K[ZnL] [8]: 21.01***
a) metallation kinetics: time required for complete (>99%) Cu complexation (in words) [1]: fast
d) kinetic inertness: half-life (t1/2) ([2]; HCl, 5M, 90° C.): <1 min
d) kinetic inertness: half-life (t1/2) ([2]; HClO4, 5M, 25° C.): about 5 min
e) stability upon reduction, Cu(II) -> Cu (I): reduction potential [3]: −0.74 V
e) stability upon reduction, Cu(II) -> Cu (I): reversibility [3]: irreversible

O=C(O)CN1CCCN2CCN(CCCN(CC(=O)O)CC2)CC1 [cb-te2a]
b) thermodynamic stability: log K[CuL] [7]: 27.10*
a) metallation kinetics: time required for complete (>99%) Cu complexation (in words) [1]: too slow
half-life (t1/2), acid-assisted dissociation of copper(II) complex ([2]; 5M HCl, 90° C.): 154 h
d) kinetic inertness: half-life (t1/2) ([2]; HCl, 5M, 90° C.): 9240 min
e) stability upon reduction, Cu(II) -> Cu (I): reduction potential [3]: −0.88 V
e) stability upon reduction, Cu(II) -> Cu (I): reversibility [3]: quasi-reversible
